According to patent US20050004029A1, “Methods and compositions for treating vascular leak using hepatocyte growth factor” (priority 2001, published 2005):

Tests used:
p38 MAPK = p38 MAPK activation by phospho-specific immunoblotting; type: cell-based, human; conditions: HGF 20 ng/ml
Experimental: (§1) Endothelial cell monolayers grown to confluence in 12-well plates and challenged with HGF were lysed with 100 μl of 2×SDS sample buffer, and cell lysates were transferred into microcentrifuge tubes and boiled for 5 min. After a brief spin, proteins from 10 μl cell lysates were separated on 12% SDS-PAGE and transferred to nitrocellulose (Schleicher & Schuell, Keene, N.H.) (30V, 18 h). After blocking with PBST (PBS with 0.1% Tween 20) containing 5% non-fat milk for 1 hr, nitrocellulose blots were reacted with primary antibodies diluted in PBST containing 5% BSA for 1 hr, washed with PBST (3×10 min), incubated with peroxidase-conjugated secondary antibodies (goat anti-rabbit IgG, 1:10,000 dilution, Sigma; or goat anti-mouse IgG, 1:10,000 dilution, Bio-Rad Labs, Richmond, Calif.) diluted in PBST with 5% non-fat milk for 1 hr and again washed with PBST (3×10 min). Finally, immunoreactive proteins were detected using ECL. The relative intensities of the protein bands were quantified by scanning densitometry.
The MAP family of kinases (ERK1/2 and p38) are actively involved in agonist-induced endothelial cell actin reorganization and barrier regulation (Verin, A. D. et al. (2000) Am. J. Physiol: Lung Cell Molec. Phys. 279:L360-L370, 2000; Garcia, J. G. N. et al. (2001) J. Clin. Invest. 108:689-711) and have been noted to participate in HGF-mediated cell activation (Liang, C. C. and Chen, H. C. (2001) J. Biol. Chem. 276:21146-21152). These reports were confirmed in human endothelial cell monolayers incubated with HGF (20 ng/ml, for 1, 2, 5, 10, 15, 20, 30, 60, or 120 min) where activation of p42/44 ERK and p38 MAPK by HGF was detected by immunoblotting with antibodies that only recognize the phosphorylated (activated) forms of ERK or p38 MAPK. The activation of ERKs was evident at 5 min, maximal after 10-15 min with a gradual decline thereafter, but remaining sustained above basal levels for more than 2 hrs. […] The onset of HGF-mediated activation of p38 MAPK was similar to ERK, with plateau at 10-15 min. […]

PI-3′ kinase = experiment: Akt phosphorylation by western immunoblotting (PI-3′ kinase activity); type: cell-based
Experimental: as §1
To identify key signaling mediators involved in HGF-induced barrier protection, the role of PI-3′-kinase in HGF-stimulated barrier improvement was examined by measuring HGF-dependent phosphorylation of the serine/threonine kinase, Akt, a well-accepted method of defining PI-3′ kinase activity. Cell homogenates were analyzed by western immunoblotting with anti-phospho-Akt[…] antibody. When endothelial monolayers were incubated with HGF (20 ng/ml) for increasing amounts of time (1, 2, 5, 10, 15, 20, 30, 60, or 120 minutes), AKT is rapidly phosphorylated beginning at 2 min with maximal effect plateauing by 5-30 min. When the cells are incubated for 15 minutes with increasing concentrations of HGF (0.5, 1, 2, 5, 10, 20, 50 or 100 ng/ml), activation was […] in response to concentrations as low as 5 ng/ml. […]

[1] = test system: human endothelial monolayers; experiment: F-actin immunofluorescent microscopy (cortical actin ring); type: cell-based; conditions: HGF 20 ng/ml
Experimental: Endothelial cell monolayers grown on gelatinized cover slips were rinsed with M199 and incubated with agonists in the same medium in a 37° C. incubator (5% CO2). Monolayers were then rinsed with PBS (3×2 min), fixed in 4% paraformaldehyde for 10 min, again rinsed with PBS (3×2 min), and permeabilized with 0.25% Triton X-100 for 5 min. Cells were then washed briefly with PBS (3×2 min), blocked with PBS containing 2% BSA for 30 min and incubated with 1 Unit/mL of Texas Red-X phalloidin (Molecular Probes, Eugene, Oreg.), β-catenin antibody (Transduction Laboratories, Lexington, Ky.), glycogen synthase kinase-3 β (GSK-3β) (Santa Cruz Biotechnology, Inc., Santa Cruz, Calif.), or mono-phosphorylated MLC antisera (see Garcia, J. G. N. et al. (2001) J. Clin. Invest. 108:689-711) for 1 hr. After washing with PBS (3×2 min), cover slips were mounted on slides using SlowFade mounting medium (Molecular Probes). Cells were analyzed using a 60× oil objective on a Nikon Eclipse TE 300 microscope. Images were captured by Sony Digital Photo camera DKC 5000. […]
The effect of HGF on the spatial localization of polymerized actin in human endothelial monolayers was investigated by immunofluorescent microscopy. […] F-actin staining was assessed with Texas red phalloidin and myosin light chain staining evaluated with anti-monophosphorylated myosin light chain polyclonal antibody.

p42/44 ERK = p42/44 ERK activation by phospho-specific immunoblotting; type: cell-based, human; conditions: HGF 20 ng/ml
Experimental: as §1
The MAP family of kinases (ERK1/2 and p38) are actively involved in agonist-induced endothelial cell actin reorganization and barrier regulation (Verin, A. D. et al. (2000) Am. J. Physiol: Lung Cell Molec. Phys. 279:L360-L370, 2000; Garcia, J. G. N. et al. (2001) J. Clin. Invest. 108:689-711) and have been noted to participate in HGF-mediated cell activation (Liang, C. C. and Chen, H. C. (2001) J. Biol. Chem. 276:21146-21152). These reports were confirmed in human endothelial cell monolayers incubated with HGF (20 ng/ml, for 1, 2, 5, 10, 15, 20, 30, 60, or 120 min) where activation of p42/44 ERK and p38 MAPK by HGF was detected by immunoblotting with antibodies that only recognize the phosphorylated (activated) forms of ERK or p38 MAPK. The activation of ERKs was evident at 5 min, maximal after 10-15 min with a gradual decline thereafter, but remaining sustained above basal levels for more than 2 hrs. […] The onset of HGF-mediated activation of p38 MAPK was similar to ERK, with plateau at 10-15 min. However, the duration of this response was much more truncated than ERK activation, beginning to decline by 20 min and returning to basal value by 1 hr.

Substance: HGF: heparin-binding glycoprotein, multifunctional cytokine, ligand of c-Met; purchased from R&D Systems
- time at which p38 MAPK activation begins to decline (p38 MAPK): ≤ 20 min
- time of plateau of p38 MAPK activation (p38 MAPK): 10 to 15 min
- time of return of p38 MAPK activation to basal value (p38 MAPK): ≤ 1 h
- onset of Akt phosphorylation (PI-3′ kinase; HGF 20 ng/ml): 2 min
- time of maximal Akt phosphorylation (plateau) (PI-3′ kinase; HGF 20 ng/ml): 5 to 30 min
- lowest concentration giving Akt activation (PI-3′ kinase; HGF 0.5-100 ng/ml, 15 minutes): 5 ng/mL
- F-actin staining [1]: rapid enhancement of F-actin staining spatially confined to the cortical cytoskeletal ring
- duration of ERK activation above basal levels (p42/44 ERK): more than 2 hrs
- time at which ERK activation is evident (p42/44 ERK): 5 min
- time of maximal ERK activation (p42/44 ERK): 10 to 15 min
